Data published in paper PMC8588277, “Oxy-Polybrominated Diphenyl Ethers from the Indonesian Marine Sponge, Lamellodysidea herbacea: X-ray, SAR, and Computational Studies” (Molecules, 2021).
Converted amounts (≈) assume the structure as drawn. Read-outs that look alike come from different tables or passages of the source.

Key:
[1] = tested on: human embryonic kidney (HEK293T) cells; assay: In vitro cytotoxicity assay (MTT); format: cell-based
Method: (§1) In vitro cytotoxicity was determined against human embryonic kidney (HEK293T) cells. The assay was performed in 96-well treated tissue culture plates. Cells were seeded in the wells (5000 cells in 100 µL media containing RPMI1640, FBS, penicillin and streptomycin) and incubated for 24 h. Samples were then added and plates were again incubated for 48 h. MTT was then added and the plates were incubated for 4 h at 37 °C. Formazan crystals formed were dissolved in EtOH and absorbances were read at λ = 595 nm. The result was analyzed by using Prism 9 software (Graphpad, San Diego, CA, USA) to obtain IC50 values.

[2] = In vitro cytotoxicity assay (MTT); format: cell-based, human; settings: human
Method: as §1

[3] = tested on: Klebsiella pneumoniae; assay: Agar-plate diffusion assay, K. pneumoniae; format: cell-based; settings: for Antibacterial Activity Gram-Negative K. pneumoniae Clear Inhibition Zone: at the MID, disk diameter 6 mm; for Antibacterial Activity Gram-Negative K. pneumoniae MID: minimum dose that induced an obvious inhibition zone (1–1.5 mm), 6 mm disk
Method: (§2) Staphylococcus aureus ATCC 6538 and Klebsiella pneumoniae were used for biological evaluation. Concentrations assayed ranged from 0.08 to 1.25 µg/disks. DMSO was used to dissolve the compounds, while vancomycin and oxacillin were used as positive controls for Staphylococcus aureus and gentamycin was used as a positive control for Klebsiella pneumoniae. The minimum inhibitory dose (MID, μg/disk) was defined as the minimum dose that induced an obvious inhibition zone (1–1.5 mm). The disk diameter was 6 mm.

[4] = tested on: Staphylococcus aureus ATCC 6538; assay: Agar-plate diffusion assay, S. aureus; format: cell-based; settings: for Antibacterial Activity Gram-Positive S. aureus Clear Inhibition Zone: at the MID, disk diameter 6 mm; for Antibacterial Activity Gram-Positive S. aureus MID: minimum dose that induced an obvious inhibition zone (1–1.5 mm), 6 mm disk
Method: as §2

[5] = tested on: Pseudomonas aeruginosa; parameters: method as in PMID 27399938; settings: cited from earlier work
[6] = tested on: Enterococcus faecium; parameters: method as in PMID 27399938; settings: cited from earlier work
[7] = tested on: Staphylococcus aureus; parameters: method as in PMID 27399938; settings: cited from earlier work
[8] = tested on: Bsc-1 cells; parameters: method as in PMID 27399938; settings: cited from earlier work
[9] = tested on: Candida albicans; parameters: method as in PMID 27399938; settings: cited from earlier work
[10] = tested on: Escherichia coli; parameters: method as in PMID 27399938; settings: cited from earlier work
[11] = Homo sapiens, HEK-293T, HEK293T cells, methylation and acetylation products, read-out: IC50 against HEK293T
[12] = HEK293T cells, MTT, 48 h, read-out: Cytotoxicity HEK293T IC50

| Molecule | IC50 [1, 11] [mg/L] | Antibacterial Activity Gram-Negative K. pneumoniae Clear Inhibition Zone [3] [mm] | Antibacterial Activity Gram-Negative K. pneumoniae MID [3] [µg/Disk] | Antibacterial Activity Gram-Positive S. aureus Clear Inhibition Zone [4] [mm] | Antibacterial Activity Gram-Positive S. aureus MID [4] [µg/Disk] | also measured |
| --- | --- | --- | --- | --- | --- | --- |
| CC(=O)Oc1c(Br)c(Br)cc(Br)c1Oc1cc(Br)cc(Br)c1O [Compound 12, 2,3,5-tribromo-6-(3′, 5′-dibromo-2′-hydroxyphenoxy) phenyl acetate] | > 10 | – | – | – | – | – |
| CC(=O)Oc1c(Br)c(Br)c(Br)c(Br)c1Oc1cc(Br)cc(Br)c1O [Compound 10, 2,3,4,5-tetrabromo-6-(3′,5′-dibromo-2′-hydroxyphenoxy) phenyl acetate] | > 10 | – | – | – | – | – |
| COc1c(Br)cc(Br)cc1Oc1c(Br)cc(Br)c(Br)c1OC [Compound 9, 2,3,5-tribromo-6-(3′,5′-dibromo-2′-methoxyphenoxy) anisole] | > 10 | – | – | – | – | – |
| COc1c(Br)cc(Br)cc1Oc1c(Br)c(Br)c(Br)c(Br)c1OC [Compound 8, 2,3,4,5-tetrabromo-6-(3′,5′-dibromo-2′-methoxyphenoxy) anisole] | > 10 | – | – | – | – | – |
| COc1c(Br)c(Br)c(Br)c(Br)c1Oc1cc(Br)cc(Br)c1O [Compound 7] | > 10 | – | – | – | – | – |
| Oc1c(Br)cc(Br)cc1Oc1c(O)c(Br)c(Br)c(Br)c1Br [Compound 1, 2,3,4,5-tetrabromo-6-(3′, 5′-dibromo-2′-hydroxyphenoxy) phenol] | – | 7.00 ± 0.00 | 0.078 | 7.17 ± 0.24 | 0.078 | IC50 at 48 h ([2]; Cytotoxicity HEK293T IC50): 16.2 ± 1.17 µM |
| Cc1onc(-c2ccccc2)c1C(=O)N[C@@H]1C(=O)N2[C@@H]1SC(C)(C)[C@@H]2C(=O)O [Oxacillin] | – | 7.33 ± 0.24 | 0.078 | 11.33 ± 0.24 | < 0.078 | – |
| CC(=O)Oc1c(Br)cc(Br)cc1Oc1c(Br)c(Br)c(Br)c(Br)c1OC(C)=O [Compound 11, 2,3,4,5-tetrabromo-6-(3′,5′-dibromo-2′-acetoxyphenoxy) phenyl acetate] | > 10 | – | – | – | – | – |
| CC(=O)Oc1c(Br)cc(Br)cc1Oc1c(Br)cc(Br)c(Br)c1OC(C)=O [Compound 13, 2,3,5-tribromo-6-(3′,5′-dibromo-2′-acetoxyphenoxy) phenyl acetate] | > 10 | – | – | – | – | – |
| COc1cccc2c1C(=O)c1c(O)c3c(c(O)c1C2=O)C[C@@](O)(C(=O)CO)C[C@@H]3O[C@H]1C[C@H](N)[C@H](O)[C@H](C)O1 [Doxorubicin, reference compound] | – | – | – | – | – | IC50 at 48 h [2, 12]: 0.22 ± 0.09 µM |
| CN[C@H](CC(C)C)C(=O)N[C@H]1C(=O)N[C@@H](CC(N)=O)C(=O)N[C@H]2C(=O)N[C@H]3C(=O)N[C@H](C(=O)N[C@H](C(=O)O)c4cc(O)cc(O)c4-c4cc3ccc4O)[C@H](O)c3ccc(c(Cl)c3)Oc3cc2cc(c3O[C@@H]2O[C@H](CO)[C@@H](O)[C@H](O)[C@H]2O[C@H]2C[C@](C)(N)[C@H](O)[C@H](C)O2)Oc2ccc(cc2Cl)[C@H]1O [Vancomycin] | – | 7.33 ± 0.24 | 0.078 | 7.00 ± 0.00 | 0.078 | – |
| Oc1cc(Br)cc(Br)c1Oc1cc(Br)cc(Br)c1O [Compound 16, 3,5-dibromo-6-(3′, 5′-dibromo-2′-hydroxyphenoxy) phenol] | – | 7.50 ± 0.00 | 0.078 | 7.00 ± 0.00 | 0.078 | IC50 ([1]; human, 48 h): 8.11 µM; IC50 at 48 h ([2]; Cytotoxicity HEK293T IC50): 8.65 ± 1.11 µM; MIC Pseudomonas aeruginosa [5]: > 50 mg/L; MIC Enterococcus faecium [6]: 1.6 to 3.1 mg/L; MIC Staphylococcus aureus [7]: 1.25 to 1.6 mg/L; IC50 against Bsc-1 cells [8]: > 50 mg/L; MIC Candida albicans [9]: > 50 mg/L; MIC Escherichia coli [10]: 50 mg/L (≈ 96.6 µM) |
| Oc1ccccc1Oc1ccccc1O [Compound 30, 2, 2′-oxydiphenol, reference compound] | – | – | – | – | – | IC50 at 48 h [2, 12]: > 198 µM |
| Gentamycin | – | 7.33 ± 0.47 | 0.078 | 7.67 ± 0.47 | 0.078 | – |
